From patent US12528767B2, “HDAC6 inhibitors and uses thereof” (Eikonizo Therapeutics, Inc., priority 2019, dated 2026) come the findings set out here.

Where “and” joins values, the source holds several entries; their conditions need not be identical. Identical values can stand only once. Like-named read-outs stand apart in the source and are kept apart here.

Series [1] in a line: Cell viability in primary rat dorsal root ganglia (DRG). Format: cell-based.
Series [2] concerns HEK293, human embryonic kidney. The note with it: 30 µM.
Series [3] relates to SH-SY5Y, human neuroblastoma. The note with it: 30 µM.
Another series addresses T1, Full length Human HDAC8 (Homo sapiens, UniProt Q9BY41).
T1 sequence (Q9BY41 1-377): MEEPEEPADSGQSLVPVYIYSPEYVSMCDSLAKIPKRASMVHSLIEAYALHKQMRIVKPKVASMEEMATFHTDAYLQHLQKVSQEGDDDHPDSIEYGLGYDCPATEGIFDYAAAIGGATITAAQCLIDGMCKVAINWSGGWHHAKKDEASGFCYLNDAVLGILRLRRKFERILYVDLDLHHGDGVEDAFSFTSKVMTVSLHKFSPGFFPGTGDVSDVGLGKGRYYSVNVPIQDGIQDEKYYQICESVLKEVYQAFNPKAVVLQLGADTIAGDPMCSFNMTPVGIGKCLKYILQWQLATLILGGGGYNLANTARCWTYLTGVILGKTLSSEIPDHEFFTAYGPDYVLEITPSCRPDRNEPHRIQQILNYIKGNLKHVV

The subject of series [4] is tubulin acetylation (acTubK40) in undifferentiated SH-SY5Y cells. Nature of the series: Tubulin acetylation in cells (Western immunoblot). Format: cell-based. The note with it: Homo sapiens, 4 hours, acetylTubulin/Tubulin ratio. As to the method:
(§1) Compound EC50 Determination for Tubulin- and Histone H3 Acetylation in Cells
(§2) Estimation of the EC50 for exemplary compounds to alter target protein acetylation in undifferentiated SH-SY5Y cells was performed using standard Western immunoblotting methods. […] SH-SY5Y cells were grown to 90% confluency on sterile cell growth plates. 10 mM compound stocks prepared in DMSO and two-fold serial dilutions were prepared from the stock and applied to cells to achieve a 12-point concentration range in cell media from an upper limit of 10 μM to a lower limit of DMSO [zero compound].
(§3) Cells were incubated under normal growth conditions (37° C., 5% CO2) in the presence of compound for 4 hours, then media was aspirated and cells were rinsed two times with 1×DPBS with calcium and magnesium warmed to 37° C. Cells were frozen directly on the plates on a bed of dry ice for 5 min, then stored at −80° C. until protein extraction.
(§4) Protein extraction was performed in RIPA buffer (50 mM Tris-HCL pH 8.0, 150 mM NaCl, 0.5% sodium deoxycholate, 0.1% sodium dodecyl sulfate, 1% NP-40) supplemented with Pierce protease inhibitor mini tables (Thermofisher cat #A32953) exactly as described by the manufacturer. After thawing the plate on a bed of wet ice for 10 minutes, lysis buffer was added to each well (e.g. 100 μL per well of a 24-well plate) and cells scraped from the bottom of each well. Lysates were then sonicated over ice (40% power, 30 pulses of 1 second on, 2 seconds off), centrifuged at 16,000 g for 10 min at 4° C., and the clarified supernatant saved. Protein concentration was determined by BCA assay and at least 3 μg prepared per lane by combining lysate supernatant aliquot with 1/3 total volume of 3× gel loading buffer containing DTT (NEB Cat. #B7703S), heating for 5 minutes at 95° C., briefly centrifuging and then loading on an SDS-PAGE gel.
(§5) Proteins were resolved on a 4-20% Tris-Glycine gel and transferred to PVDF membrane using an iBlot2 dry transfer system. The membrane was then blocked for at least 30 minutes at room temperature in TBST containing 5% milk or 5% bovine serum albumin, then incubated overnight at 4° C. with a single primary antibody from the following table:
(§6) Following primary antibody incubation, membranes were washed, incubated in secondary antibody, washed and incubated in ECL prime western blotting detection reagent (Amersham #RPN223) with membrane exposure and ECL signal capture in a LI-COR Odyssey Imaging system. […] Subsequent densitometry of immunoreactive bands was performed using the ImageStudio software and Microsoft Excel resulting in the following ratios: acetylTubulin/Tubulin and acetyl histone H3K9/histone H3. Raw ratios were uploaded to GraphPad Prism v7.0 with EC50 values modeled using the variable slope equation for log-transformed data [log(agonist) vs response in Prism].
On the technique in general: In western blotting, separated proteins are transferred to a membrane and probed.

The target in the next series is T2, Full length Human HDAC6 (Homo sapiens, UniProt Q9UBN7).
T2 sequence (Q9UBN7 1-1215): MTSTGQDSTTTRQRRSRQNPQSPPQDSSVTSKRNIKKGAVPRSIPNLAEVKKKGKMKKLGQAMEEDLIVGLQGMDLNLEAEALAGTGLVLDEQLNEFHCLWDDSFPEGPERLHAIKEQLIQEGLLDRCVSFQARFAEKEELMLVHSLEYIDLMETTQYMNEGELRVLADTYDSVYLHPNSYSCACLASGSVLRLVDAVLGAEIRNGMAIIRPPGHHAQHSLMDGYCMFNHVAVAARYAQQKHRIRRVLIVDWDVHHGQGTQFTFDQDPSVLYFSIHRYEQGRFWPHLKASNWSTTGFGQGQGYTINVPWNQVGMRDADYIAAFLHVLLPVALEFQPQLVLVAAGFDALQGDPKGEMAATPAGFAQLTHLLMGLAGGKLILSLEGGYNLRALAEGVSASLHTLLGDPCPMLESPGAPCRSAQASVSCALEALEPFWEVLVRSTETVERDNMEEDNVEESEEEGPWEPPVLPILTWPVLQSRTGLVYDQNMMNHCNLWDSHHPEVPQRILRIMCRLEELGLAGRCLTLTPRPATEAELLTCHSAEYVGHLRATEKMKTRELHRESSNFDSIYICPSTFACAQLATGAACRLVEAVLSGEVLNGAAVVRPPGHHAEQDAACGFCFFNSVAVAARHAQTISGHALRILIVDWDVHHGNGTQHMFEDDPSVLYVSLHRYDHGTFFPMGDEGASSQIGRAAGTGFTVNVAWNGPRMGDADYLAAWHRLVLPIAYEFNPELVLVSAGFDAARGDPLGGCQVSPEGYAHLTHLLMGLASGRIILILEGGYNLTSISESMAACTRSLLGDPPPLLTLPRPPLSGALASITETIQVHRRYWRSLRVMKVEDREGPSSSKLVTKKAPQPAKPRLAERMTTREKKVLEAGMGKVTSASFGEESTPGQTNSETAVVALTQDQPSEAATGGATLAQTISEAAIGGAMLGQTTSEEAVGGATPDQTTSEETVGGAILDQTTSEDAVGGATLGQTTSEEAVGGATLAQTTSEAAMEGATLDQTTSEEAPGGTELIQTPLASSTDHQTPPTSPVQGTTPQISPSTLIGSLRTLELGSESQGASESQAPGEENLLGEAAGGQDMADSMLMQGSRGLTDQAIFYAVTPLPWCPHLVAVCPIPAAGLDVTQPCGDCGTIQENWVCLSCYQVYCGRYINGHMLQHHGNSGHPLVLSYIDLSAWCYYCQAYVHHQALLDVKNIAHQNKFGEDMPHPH
The conditions noted are these: for Selectivity (6 v 8) (fold): ratio of HDAC8 IC50/HDAC6 IC50.

Series [5] relates to histone H3 acetylation (acH3K9) in undifferentiated SH-SY5Y cells. Briefly: Histone H3 acetylation in cells (Western immunoblot). The conditions noted are these: Homo sapiens, 4 hours, acetyl histone H3K9/histone H3 ratio. Format: cell-based. As for the experimental part:
as §1, §2, §3, §4, §5, §6

Series [6] in a line: Metabolic stability in liver microsomes: Mouse BL6. Format: in vitro ADME. The note with it: 1 μM compound, 0.3 mg/mL protein, NADPH, 37° C., read-out: Mouse BL6 Liver Microsome Stability Half-life.

One may read the CC50 as the concentration giving 50% cytotoxicity. As for `O=C(CCCCCCNC(=O)c1cnc(N(c2ccccc2)c2ccccc2)nc1)NO` [Ricolinostat], half-maximal cytotoxicity in series [1] (CC50 at 72 h) was put at 5200 nM.

Broadly, the viability is the share of living cells, or the viability signal relative to a control. As to `CN1CCc2c(c3ccccc3n2Cc2ccc(C(=O)NO)cc2)C1` [Tubastatin A], the viability in series [2] was 88.9% and 55.3%. Moreover, in series [3], the “Cell viability (percent luminescence ± SD) SH-SY5Y 4 hrs” value was 105.8 ± 15% and the “Cell viability (percent luminescence ± SD) SH-SY5Y 24 hrs” value worked out at 117.3 ± 4.1%.

What is called IC50 is the concentration that gives 50% inhibition. Read a low IC50 as greater potency in that assay. As a reminder, the EC50 is the concentration needed to bring the measured effect to its halfway point. Turning to `Cn1c2c(c3ccccc31)CCN(Cc1ccc(C(=O)NO)cc1F)C2` [compound 45], the IC50 was 100 to 1000 nM against Full length Human HDAC8 and 1 to 100 nM at Full length Human HDAC6. The concentration for a half-maximal effect (EC50) in series [4] was 1700 nM; in series [5] it was over 10000 nM.

The half-life is how long it takes for the measured level to halve. Turning to `O=C(NO)c1ccc(CN2C3CCCC2COC3)c(F)c1` [compound 52], the half-inhibitory concentration (IC50) at Full length Human HDAC8 was in the range of 100 to 1000 nM; against Full length Human HDAC6, 1 to 100 nM. In addition, the half-life at 1 μM in series [6] is 4.83 h. Besides, the “Selectivity (6 v 8) (fold)” value on Full length Human HDAC6 (Table 1, number) is 35.5 fold; on Full length Human HDAC6 (Table 1, range class), “III (III: >10-100)”.
